pIC50: −log10 of the molar value.
The compounds below were run on IL-1β production in PMA-differentiated THP-1 cells (assay: IL-1β production in PMA-differentiated THP-1 cells stimulated with gramicidin (hTHP-1 assay, 2% fetal bovine serum; Procedures 1-3)). Settings: Homo sapiens, THP-1, hTHP-1 assay containing 2% fetal bovine serum; bound; read-out: hTHP-1 IC50 (Average IC50 of compounds in hTHP-1 assay).
Format: cell-based, human
Outline: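 Readout is HTRF of IL-1β in cell-free supernatant after 2 h gramicidin (5 μM) challenge. Cells: THP-1 differentiated with PMA 20 ng/ml for 16-18 h, plated 50,000/well in 2% FBS RPMI, exposed to compound 1 h beforehand at final 100–0.0017 μM, DMSO 0.37%.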

pIC50 | SMILES
< 4.52 | CNS(=O)(=NC(=O)N(C)c1c2c(cc3c1CCC3)CCC2)c1cnc(C(C)(C)O)s1 (stereo not drawn) [Compound 249]

Same assay, conditions: Homo sapiens, THP-1, hTHP-1 assay containing 2% fetal bovine serum; class symbols; read-out: hTHP-1 IC50 (Average IC50 of compounds in hTHP-1 assay)

pIC50 | SMILES
6.70 to 7.40 | CC(C)(O)c1ccc(S(N)(=O)=NC(=O)Nc2c3c(cc4c2CCC4)CCC3)c(F)c1 (stereo not drawn) [Example 13, 2-fluoro-N′-(1,2,3,5,6,7-hexahydro-s-indacen-4-ylcarbamoyl)-4-(2-hydroxypropan-2-yl)benzenesulfonimidamide]
6.00 to 6.70 | Cc1cc(S(N)(=O)=NC(=O)Nc2c3c(cc4c2CCC4)CCC3)ccc1C(C)(C)O (stereo not drawn) [Example 52, N′-((1,2,3,5,6,7-hexahydro-s-indacen-4-yl)carbamoyl)-4-(2-hydroxypropan-2-yl)-3-methylbenzenesulfonimidamide]
7.40 to 8.10 | Cc1nc(C(C)(C)O)sc1S(N)(=O)=NC(=O)Nc1c2c(cc3c1CCC3)CCC2 (stereo not drawn) [Example 53, N′-((1,2,3,5,6,7-hexahydro-s-indacen-4-yl)carbamoyl)-2-(2-hydroxypropan-2-yl)-4-methylthiazole-5-sulfonimidamide]
5.30 to 6.00 | CC(C)(O)c1ccc(S(N)(=O)=NC(=O)Nc2c3c(cc4c2CCC4)CCC3)cc1F (stereo not drawn) [Example 60, 3-fluoro-N′-((1,2,3,5,6,7-hexahydro-s-indacen-4-yl)carbamoyl)-4-(2-hydroxypropan-2-yl)benzenesulfonimidamide]

The remaining lines, values behind:

SMILES | pIC50
CC(C)(O)c1csc(S(N)(=O)=NC(=O)Nc2c3c(c(Cl)c4c2CCC4)CCC3)c1 (stereo not drawn) [Example 14, N′-(8-chloro-1,2,3,5,6,7-hexahydro-s-indacen-4-ylcarbamoyl)-4-(2-hydroxypropan-2-yl)thiophene-2-sulfonimidamide] | 7.40 to 8.10
CC(C)c1cc(C#N)c(F)c(C(C)C)c1NC(=O)N=S(N)(=O)c1cnc(C(C)(C)O)s1 (stereo not drawn) [Example 15, N′-(4-cyano-3-fluoro-2,6-diisopropylphenylcarbamoyl)-2-(2-hydroxypropan-2-yl)thiazole-5-sulfonimidamide] | 6.70 to 7.40
CC(C)c1cc(F)cc(C(C)C)c1NC(=O)N=S(N)(=O)c1cnc(C(C)(C)O)s1 (stereo not drawn) [Example 21, N′-(4-fluoro-2,6-diisopropylphenylcarbamoyl)-2-(2-hydroxypropan-2-yl)thiazole-5-sulfonimidamide] | 6.70 to 7.40
CN(C)Cc1ccc(S(N)(=O)=NC(=O)Nc2c3c(cc4c2CCC4)CCC3)cc1 (stereo not drawn) [Example 28, 4-((dimethylamino)methyl)-N′-(1,2,3,5,6,7-hexahydro-s-indacen-4-ylcarbamoyl)benzenesulfonimidamide] | 6.70 to 7.40
CC(C)(O)c1cc(F)c(S(N)(=O)=NC(=O)Nc2c3c(c(F)c4c2CCC4)CCC3)s1 (stereo not drawn) [Example 30, 3-fluoro-N′-(8-fluoro-1,2,3,5,6,7-hexahydro-s-indacen-4-ylcarbamoyl)-5-(2-hydroxypropan-2-yl)thiophene-2-sulfonimidamide] | 7.40 to 8.10
CC(C)c1cc(OC(F)F)cc(C(C)C)c1NC(=O)N=S(N)(=O)c1ncc(C(C)(C)O)s1 (stereo not drawn) [Example 38, N′-(4-(difluoromethoxy)-2,6-diisopropylphenylcarbamoyl)-5-(2-hydroxypropan-2-yl)thiazole-2-sulfonimidamide] | 6.70 to 7.40
CC(C)(O)c1ccc(S(N)(=O)=NC(=O)Nc2c3c(c(Cl)c4c2CCC4)CCC3)c(F)c1 (stereo not drawn) [Example 41] | 6.70 to 7.40
Cc1oc(S(N)(=O)=NC(=O)Nc2c3c(c(F)c4c2CCC4)CCC3)cc1C(C)(C)O (stereo not drawn) [Example 45, N′-(8-fluoro-1,2,3,5,6,7-hexahydro-s-indacen-4-ylcarbamoyl)-4-(2-hydroxypropan-2-yl)-5-methylfuran-2-sulfonimidamide] | > 8.10
CN(C)Cc1ccc(S(N)(=O)=NC(=O)Nc2c3c(cc4c2CCC4)CCC3)c(F)c1 (stereo not drawn) [Example 48, 4-((dimethylamino)methyl)-2-fluoro-N′-(1,2,3,5,6,7-hexahydro-s-indacen-4-ylcarbamoyl)benzene-sulfonimidamide] | 6.70 to 7.40
CC(C)c1cc(F)cc(C(C)C)c1NC(=O)N=S(N)(=O)c1ccc(C(C)(C)O)s1 (stereo not drawn) [Example 49, N′-(4-fluoro-2,6-diisopropylphenylcarbamoyl)-5-(2-hydroxypropan-2-yl)thiophene-2-sulfonimidamide] | 6.00 to 6.70
CC(C)(O)c1ccc(S(N)(=O)=NC(=O)Nc2c3c(c(F)c4c2CCC4)CCC3)c(Cl)c1 (stereo not drawn) [Example 50, 2-chloro-N′-(8-fluoro-1,2,3,5,6,7-hexahydro-s-indacen-4-ylcarbamoyl)-4-(2-hydroxypropan-2-yl)benzenesulfonimidamide] | 5.30 to 6.00
CC(C)(O)c1cc(F)cc(S(N)(=O)=NC(=O)Nc2c3c(c(F)c4c2CCC4)CCC3)c1 (stereo not drawn) [Example 56, 3-fluoro-N′-((8-fluoro-1,2,3,5,6,7-hexahydro-s-indacen-4-yl)carbamoyl)-5-(2-hydroxypropan-2-yl)benzenesulfonimidamide] | 6.00 to 6.70
Cc1cc(S(N)(=O)=NC(=O)Nc2c(C(C)C)cc(OC(F)F)cc2C(C)C)sc1C(C)(C)O (stereo not drawn) [Example 57, N′-((4-(difluoromethoxy)-2,6-diisopropylphenyl)carbamoyl)-5-(2-hydroxypropan-2-yl)-4-methylthiophene-2-sulfonimidamide] | 6.00 to 6.70
CC(C)(O)c1cc(S(N)(=O)=NC(=O)Nc2c3c(c(F)c4c2CCC4)CCC3)ccc1F (stereo not drawn) [Example 58, 4-fluoro-N′-((8-fluoro-1,2,3,5,6,7-hexahydro-s-indacen-4-yl)carbamoyl)-3-(2-hydroxypropan-2-yl)benzenesulfonimidamide] | 5.30 to 6.00
Cc1nc(C(C)(C)O)sc1S(N)(=O)=NC(=O)Nc1c2c(c(F)c3c1CCC3)CCC2 (stereo not drawn) [Example 59, N′-((8-fluoro-1,2,3,5,6,7-hexahydro-s-indacen-4-yl)carbamoyl)-2-(2-hydroxypropan-2-yl)-4-methylthiazole-5-sulfonimidamide] | 7.40 to 8.10
CC(C)(O)c1csc(S(N)(=O)=NC(=O)Nc2c3c(c(F)c4c2CCC4)CCC3)n1 (stereo not drawn) [Example 61, N′-((8-fluoro-1,2,3,5,6,7-hexahydro-s-indacen-4-yl)carbamoyl)-4-(2-hydroxypropan-2-yl)thiazole-2-sulfonimidamide] | 7.40 to 8.10

Same assay, conditions: hTHP-1 assay containing 2% fetal bovine serum; class symbols; read-out: hTHP-1 IC50 (Average IC50 of compounds in hTHP-1 assay)

pIC50 | SMILES
5.30 to 6.00 | CC(=O)c1ncc(S(N)(=O)=NC(=O)Nc2c3c(cc4c2CCC4)CCC3)s1 (single isomer, unassigned) [Example 417, (R) or (S)-2-acetyl-N′-((1,2,3,5,6,7-hexahydro-s-indacen-4-yl)carbamoyl)thiazole-5-sulfonimidamide]
6.70 to 7.40 | CC(=O)c1ncc(S(N)(=O)=NC(=O)Nc2c3c(cc4c2CCC4)CCC3)s1 (single isomer, unassigned) [Example 418, (S) or (R)-2-acetyl-N′-((1,2,3,5,6,7-hexahydro-s-indacen-4-yl)carbamoyl)thiazole-5-sulfonimidamide]
6.70 to 7.40 | CC(C)(O)c1ncc(S(N)(=O)=NC(=O)Nc2cc3c(c4c2CCC4)CCC3)s1 (single isomer, unassigned) [Example 419, (R) or (S)-N′-((1,2,3,6,7,8-hexahydro-as-indacen-4-yl)carbamoyl)-2-(2-hydroxypropan-2-yl)thiazole-5-sulfonimidamide]
5.30 to 6.00 | CC(C)(O)c1ncc(S(N)(=O)=NC(=O)Nc2cc3c(c4c2CCC4)CCC3)s1 (single isomer, unassigned) [Example 420, (S) or (R)-N′-((1,2,3,6,7,8-hexahydro-as-indacen-4-yl)carbamoyl)-2-(2-hydroxypropan-2-yl)thiazole-5-sulfonimidamide]
7.40 to 8.10 | [2H]C1([2H])CCc2cc3c(c(NC(=O)N=S(N)(=O)c4cnc(C(C)(C)O)s4)c21)C([2H])([2H])CC3 (single isomer, unassigned) [Example 421, (R) or (S)-N′-((1,2,3,5,6,7-hexahydro-s-indacen-4-yl-3,3,5,5-d4)carbamoyl)-2-(2-hydroxypropan-2-yl)thiazole-5-sulfonimidamide]
7.40 to 8.10 | [2H]C1([2H])CCc2c1cc1c(c2NC(=O)N=S(N)(=O)c2cnc(C(C)(C)O)s2)CCC1([2H])[2H] (single isomer, unassigned) [Example 423, (R) or (S)-N′-((1,2,3,5,6,7-hexahydro-s-indacen-4-yl-1,1,7,7-d4)carbamoyl)-2-(2-hydroxypropan-2-yl)thiazole-5-sulfonimidamide]
6.00 to 6.70 | CC(C)(O)c1ncc([S@@](N)(=O)=NC(=O)Nc2c3c(cc4c2CCC4)CCC3)s1 [Example 5]

More lines, now with the values behind:

SMILES | pIC50
CN1CCCC1c1ccc(S(=N)(=O)NC(=O)Nc2c3c(cc4c2CCC4)CCC3)cc1 (single isomer, unassigned) [Example 409, (R,S) or (S,R) or (S,R) or (R,R)-N-((1,2,3,5,6,7-hexahydro-s-indacen-4-yl)carbamoyl)-4-(1-methylpyrrolidin-2-yl)benzenesulfonimidamide] | 6.00 to 6.70
CN1CCCC1c1ccc(S(=N)(=O)NC(=O)Nc2c3c(cc4c2CCC4)CCC3)cc1 (single isomer, unassigned) [Example 410, (R,S) or (S,R) or (R,S or (S,S)-N-((1,2,3,5,6,7-hexahydro-s-indacen-4-yl)carbamoyl)-4-(1-methylpyrrolidin-2-yl)benzenesulfonimidamide] | 6.70 to 7.40
CN(C)Cc1ccc(S(N)(=O)=NC(=O)Nc2c3c(cc4c2CCC4)CCC3)nc1 (single isomer, unassigned) [Example 413, (R) or (S)-5-((dimethylamino)methyl)-N′-((1,2,3,5,6,7-hexahydro-s-indacen-4-yl)carbamoyl)pyridine-2-sulfonimidamide] | 6.00 to 6.70
CN(C)Cc1ccc(S(N)(=O)=NC(=O)Nc2c3c(cc4c2CCC4)CCC3)nc1 (single isomer, unassigned) [Example 414, (S) or (R)-5-((dimethylamino)methyl)-N′-((1,2,3,5,6,7-hexahydro-s-indacen-4-yl)carbamoyl)pyridine-2-sulfonimidamide] | 4.52 to 5.30
CC(C)(O)c1ncc([S@](N)(=O)=NC(=O)Nc2c3c(cc4c2CCC4)CCC3)s1 [Example 6] | 7.40 to 8.10

Reference: patent US11724992B2 (Novartis AG, priority 2017, dated 2023)
